The record followed here is US8497240B2 (priority 2006, dated 2013).

Read-outs that look alike come from different tables or passages of the source. Ends that are not written are not given here.

Experiment [1] concerns the target T1, human GIP receptor (Homo sapiens, UniProt P48546).
T1 construct: expressed in transfected cells; host or cells: HEK293 (HEK-GIPR), membranes
T1 sequence (P48546 22-466): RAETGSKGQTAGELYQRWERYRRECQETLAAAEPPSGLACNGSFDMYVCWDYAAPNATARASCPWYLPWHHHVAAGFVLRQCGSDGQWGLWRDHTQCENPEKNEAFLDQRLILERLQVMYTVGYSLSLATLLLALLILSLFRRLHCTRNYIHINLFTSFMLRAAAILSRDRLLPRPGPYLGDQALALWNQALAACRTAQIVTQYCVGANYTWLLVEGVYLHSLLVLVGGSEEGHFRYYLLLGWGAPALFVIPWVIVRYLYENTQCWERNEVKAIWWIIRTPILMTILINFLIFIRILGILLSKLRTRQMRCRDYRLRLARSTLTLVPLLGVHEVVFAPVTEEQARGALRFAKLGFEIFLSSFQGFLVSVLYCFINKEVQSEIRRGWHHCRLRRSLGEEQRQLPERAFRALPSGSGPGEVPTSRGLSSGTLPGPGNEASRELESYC
The experiment is described as follows: biochemical. It is filed as binding.

Experiment [2] is classed as in vivo, NIH/Swiss mice.
Description: (§1) In FIG. 3A, bars represent mean±sd, n=6-10. […] Gavage (1.5 g/kg) was given at t=0, Sample was taken at t=30 min. […] In FIG. 3B, points represent mean±sem, n=8-15.
Peptide was injected IP at t=−5 minutes into 4-hour fasted NIH/Swiss female mice. […] In FIG. 17 points represent mean+/−sem. […] Samples were taken at t=60, t=120 and t=180.
The format of experiment [3] is in vivo, NIH/Swiss mice. The following applies: 80 nmol/kg, AUC240.
Description: as §1
Points represent mean±sem.
Setting [4] is: read-out: (% Inh 10 nm, GIP-LF Assay).
Where [5] appears, read: read-out: GIP RBA (% Inh 10 nM).

`CC[C@H](C)[C@H](NC(=O)[C@H](CCCCN)NC(=O)[C@H](CC(=O)O)NC(=O)[C@H](CC(C)C)NC(=O)[C@H](C)NC(=O)[C@@H](NC(=O)[C@H](CO)NC(=O)[C@H](Cc1ccc(O)cc1)NC(=O)[C@H](CC(=O)O)NC(=O)[C@H](CO)NC(=O)[C@@H](NC(=O)[C@H](Cc1ccccc1)NC(=O)[C@@H](NC(=O)CNC(=O)[C@H](CCC(=O)O)NC(=O)[C@H](C)NC(=O)[C@H](Cc1ccc(O)cc1)NC(=O)[C@@H](N)CC(C)C)[C@@H](C)O)[C@@H](C)CC)[C@@H](C)CC)C(=O)N[C@@H](C)C(=O)N[C@@H](CCC(N)=O)C(=O)N[C@@H](CCC(N)=O)C(=O)N[C@@H](CCC(=O)O)C(=O)N[C@@H](Cc1ccccc1)C(=O)N[C@H](C(=O)N[C@@H](CC(N)=O)C(=O)N[C@@H](Cc1c[nH]c2ccccc12)C(=O)N[C@@H](CC(C)C)C(=O)N[C@@H](CC(C)C)C(=O)N[C@@H](C)C(=O)N[C@@H](CCC(N)=O)C(=O)N[C@@H](CCCCN)C(=O)N1CCC[C@H]1C(=O)N[C@@H](CCCCN)C(=O)N[C@@H](CCCCN)C(=O)N[C@H](C(=O)N[C@@H](CCCNC(=N)N)C(=O)N[C@@H](Cc1ccc(O)cc1)C(=O)N[C@@H](CO)C(N)=O)[C@@H](C)CC)C(C)C` [0601GIP4803]: the inhibition at 0.01 µM in experiment [1] (setting [4]) and in experiment [1] (setting [5]) was 89.9% in each case. Further, the “OGTT/GL (%)” value in experiment [2] (30 nmol/kg) was −16, %.
In the case of “HGEGTFISDYSIALDKIRQQEFVNWLLAQKPKKIRYS-NH2 [Compound 0601GIP4842]”, the inhibition at 0.01 µM in experiment [1] (setting [4]) turned out to be 40.8%.
With `CC[C@H](C)[C@H](NC(=O)CNC(=O)[C@H](CCCCN)NC(=O)[C@H](Cc1c[nH]c2ccccc12)NC(=O)[C@H](CC(C)C)NC(=O)[C@@H](NC(=O)[C@H](Cc1ccccc1)NC(=O)CNC(=O)[C@H](CCCCN)NC(=O)[C@H](CCC(N)=O)NC(=O)[C@H](C)NC(=O)[C@H](CC(C)C)NC(=O)[C@H](CC(C)C)NC(=O)[C@H](Cc1c[nH]c2ccccc12)NC(=O)[C@H](CC(N)=O)NC(=O)[C@@H](NC(=O)[C@H](Cc1ccccc1)NC(=O)[C@H](CC(=O)O)NC(=O)[C@H](CCC(N)=O)NC(=O)[C@H](CCC(N)=O)NC(=O)[C@H](Cc1c[nH]cn1)NC(=O)[C@@H](NC(=O)[C@H](CCCCN)NC(=O)[C@H](CC(=O)O)NC(=O)[C@H](CCSC)NC(=O)[C@H](C)NC(=O)[C@@H](NC(=O)[C@H](CO)NC(=O)[C@H](Cc1ccc(O)cc1)NC(=O)[C@H](CC(=O)O)NC(=O)[C@H](CO)NC(=O)[C@@H](NC(=O)[C@H](Cc1ccccc1)NC(=O)[C@@H](NC(=O)CNC(=O)[C@H](CCC(=O)O)NC(=O)[C@@H](C)NC(=O)[C@@H](N)Cc1ccc(O)cc1)[C@@H](C)O)[C@@H](C)CC)[C@@H](C)CC)[C@@H](C)CC)C(C)C)C(C)C)C(=O)N[C@@H](CCC(N)=O)C(N)=O` [Compound 0601GIP4619], the inhibition at 0.01 µM in experiment [1] (setting [5]) was determined as 84.6%.
In the case of “HGEGTLISDYSIAMDKIHQQDFVNWLLAQKPKKIRYS-NH2 [Compound 0601GIP4843]”, in experiment [1] (setting [4]), the inhibition at 0.01 µM stood at 3%.
Same read-out and setting: for `CC[C@H](C)[C@H](NC(=O)[C@H](CO)NC(=O)[C@H](Cc1ccc(O)cc1)NC(=O)[C@H](CC(=O)O)NC(=O)[C@H](CO)NC(=O)[C@@H](NC(=O)[C@H](Cc1ccccc1)NC(=O)[C@@H](NC(=O)CNC(=O)[C@H](CCC(=O)O)NC(=O)CNC(=O)[C@@H](N)Cc1c[nH]cn1)[C@@H](C)O)[C@@H](C)CC)C(=O)N[C@@H](C)C(=O)N[C@@H](CCSC)C(=O)N[C@@H](CC(=O)O)C(=O)N[C@@H](CCCCN)C(=O)N[C@H](C(=O)N[C@@H](Cc1c[nH]cn1)C(=O)N[C@@H](CCC(N)=O)C(=O)N[C@@H](CCC(N)=O)C(=O)N[C@@H](CC(=O)O)C(=O)N[C@@H](Cc1ccccc1)C(=O)N[C@H](C(=O)N[C@@H](CC(N)=O)C(=O)N[C@@H](Cc1c[nH]c2ccccc12)C(=O)N[C@@H](CC(C)C)C(=O)N[C@@H](CC(C)C)C(=O)N[C@@H](C)C(=O)N[C@@H](CCC(N)=O)C(=O)N[C@@H](CCCCN)C(=O)N1CCC[C@H]1C(=O)N[C@@H](CCCCN)C(=O)N[C@@H](CCCCN)C(=O)N[C@H](C(=O)N[C@@H](CCCNC(=N)N)C(=O)N[C@@H](Cc1ccc(O)cc1)C(=O)N[C@@H](CO)C(N)=O)[C@@H](C)CC)C(C)C)[C@@H](C)CC` [Compound 0601GIP4839] the value was 23.9%.
For `CC[C@H](C)[C@H](NC(=O)[C@H](CO)NC(=O)[C@H](Cc1ccc(O)cc1)NC(=O)[C@H](CC(=O)O)NC(=O)[C@H](CO)NC(=O)[C@@H](NC(=O)[C@H](Cc1ccccc1)NC(=O)[C@@H](NC(=O)CNC(=O)[C@H](CCC(=O)O)NC(=O)[C@@H](C)NC(=O)[C@@H](N)Cc1ccc(O)cc1)[C@@H](C)O)[C@@H](C)CC)C(=O)N[C@@H](C)C(=O)N[C@@H](CCSC)C(=O)N[C@@H](CC(=O)O)C(=O)N[C@@H](CCCCN)C(=O)N[C@H](C(=O)N[C@@H](Cc1c[nH]cn1)C(=O)N[C@@H](CCC(N)=O)C(=O)N[C@@H](CCC(N)=O)C(=O)N[C@@H](CC(=O)O)C(=O)N[C@@H](Cc1ccccc1)C(=O)N[C@H](C(=O)N[C@@H](CC(N)=O)C(=O)N[C@@H](Cc1c[nH]c2ccccc12)C(=O)N[C@@H](CC(C)C)C(=O)N[C@@H](CC(C)C)C(=O)N[C@@H](C)C(=O)N[C@@H](CCC(N)=O)C(=O)N[C@@H](CCCCN)C(=O)N[C@H](C(=O)N[C@@H](CO)C(=O)N1CCC[C@H]1C(=O)N1CCC[C@H]1C(=O)N1CCC[C@H]1C(N)=O)[C@@H](C)O)C(C)C)[C@@H](C)CC` [0601GIP4345], the “OGTT/GL (%)” value in experiment [2] (30 nmol/kg) is −14 @ 30 nmol/kg %; in experiment [2] (250 nmol/kg) it was −25 @ 250 nmol/kg, %. Also, in experiment [3], the “Basal Glucose Lowering at Peptide Conc. of 80 nmol/kg” value was −11%, AUC240.
With `CC[C@H](C)[C@H](NC(=O)[C@H](CO)NC(=O)[C@H](Cc1ccc(O)cc1)NC(=O)[C@H](CC(=O)O)NC(=O)[C@H](CO)NC(=O)[C@@H](NC(=O)[C@H](Cc1ccccc1)NC(=O)[C@@H](NC(=O)CNC(=O)[C@H](CCC(=O)O)NC(=O)[C@H](CO)NC(=O)[C@@H](N)Cc1ccc(O)cc1)[C@@H](C)O)[C@@H](C)CC)C(=O)N[C@@H](C)C(=O)N[C@@H](CCSC)C(=O)N[C@@H](CC(=O)O)C(=O)N[C@@H](CCCCN)C(=O)N[C@H](C(=O)N[C@@H](Cc1c[nH]cn1)C(=O)N[C@@H](CCC(N)=O)C(=O)N[C@@H](CCC(N)=O)C(=O)N[C@@H](CC(=O)O)C(=O)N[C@@H](Cc1ccccc1)C(=O)N[C@H](C(=O)N[C@@H](CC(N)=O)C(=O)N[C@@H](Cc1c[nH]c2ccccc12)C(=O)N[C@@H](CC(C)C)C(=O)N[C@@H](CC(C)C)C(=O)N[C@@H](C)C(=O)N[C@@H](CCC(N)=O)C(=O)N[C@@H](CCCCN)C(=O)N1CCC[C@H]1C(=O)N[C@@H](CCCCN)C(=O)N[C@@H](CCCCN)C(=O)N[C@H](C(=O)N[C@@H](CCCNC(=N)N)C(=O)N[C@@H](Cc1ccc(O)cc1)C(=O)N[C@@H](CO)C(N)=O)[C@@H](C)CC)C(C)C)[C@@H](C)CC` [0601GIP4538], in experiment [1] (setting [5]), the inhibition at 0.01 µM worked out at 94.2%. For the same compound, in experiment [2] (30 nmol/kg), the “OGTT/GL (%)” value is −9, 30%.
Take `CC[C@H](C)[C@H](NC(=O)[C@H](CO)NC(=O)[C@H](Cc1ccc(O)cc1)NC(=O)[C@H](CC(=O)O)NC(=O)[C@H](CO)NC(=O)[C@@H](NC(=O)[C@H](Cc1ccccc1)NC(=O)[C@@H](NC(=O)CNC(=O)[C@H](CCC(=O)O)NC(=O)[C@@H](C)NC(=O)[C@H](Cc1ccc(O)cc1)NC)[C@@H](C)O)[C@@H](C)CC)C(=O)N[C@@H](C)C(=O)N[C@@H](CCSC)C(=O)N[C@@H](CC(=O)O)C(=O)N[C@@H](CCCCN)C(=O)N[C@H](C(=O)N[C@@H](Cc1c[nH]cn1)C(=O)N[C@@H](CCC(N)=O)C(=O)N[C@@H](CCC(N)=O)C(=O)N[C@@H](CC(=O)O)C(=O)N[C@@H](Cc1ccccc1)C(=O)N[C@H](C(=O)N[C@@H](CC(N)=O)C(=O)N[C@@H](Cc1c[nH]c2ccccc12)C(=O)N[C@@H](CC(C)C)C(=O)N[C@@H](CC(C)C)C(=O)N[C@@H](C)C(=O)N[C@@H](CCC(N)=O)C(=O)N[C@@H](CCCCN)C(=O)N1CCC[C@H]1C(=O)N[C@@H](CO)C(=O)N[C@@H](CO)C(=O)NCC(=O)N[C@@H](C)C(=O)N1CCC[C@H]1C(=O)N1CCC[C@H]1C(=O)N1CCC[C@H]1C(=O)N[C@@H](CO)C(N)=O)C(C)C)[C@@H](C)CC` [Compound 0601GIP4238]: the “OGTT/GL (%)” value in experiment [2] (350 nmol/kg) is −25%. In addition, the “Basal Glucose Lowering at Peptide Conc. of 80 nmol/kg” value in experiment [3] is −6%, AUC240.
Turning to `CC[C@H](C)[C@H](NC(=O)[C@H](CCCCN)NC(=O)[C@H](CC(=O)O)NC(=O)[C@H](CC(C)C)NC(=O)[C@H](C)NC(=O)[C@@H](NC(=O)[C@H](CO)NC(=O)[C@H](Cc1ccc(O)cc1)NC(=O)[C@H](CC(=O)O)NC(=O)[C@H](CO)NC(=O)[C@@H](NC(=O)[C@H](Cc1ccccc1)NC(=O)[C@@H](NC(=O)CNC(=O)[C@H](CCC(=O)O)NC(=O)CNC(=O)[C@@H](N)Cc1c[nH]cn1)[C@@H](C)O)[C@@H](C)CC)[C@@H](C)CC)C(=O)N[C@@H](C)C(=O)N[C@@H](CCC(N)=O)C(=O)N[C@@H](CCC(N)=O)C(=O)N[C@@H](CCC(=O)O)C(=O)N[C@@H](Cc1ccccc1)C(=O)N[C@H](C(=O)N[C@@H](CC(N)=O)C(=O)N[C@@H](Cc1c[nH]c2ccccc12)C(=O)N[C@@H](CC(C)C)C(=O)N[C@@H](CC(C)C)C(=O)N[C@@H](C)C(=O)N[C@@H](CCC(N)=O)C(=O)N[C@@H](CCCCN)C(=O)N1CCC[C@H]1C(=O)N[C@@H](CCCCN)C(=O)N[C@@H](CCCCN)C(=O)N[C@H](C(=O)N[C@@H](CCCNC(=N)N)C(=O)N[C@@H](Cc1ccc(O)cc1)C(=O)N[C@@H](CO)C(N)=O)[C@@H](C)CC)C(C)C` [Compound 0601GIP4841], in experiment [1] (setting [4]), the inhibition at 0.01 µM came out at 56.6%.
